Holding throughout (type): biochemical
In one test the target is T1, Zap-70 (Homo sapiens, UniProt P43403).
T1 construct: Kinases are expressed as either kinase domains or full length constructs; made in house
T1 sequence (P43403 1-619): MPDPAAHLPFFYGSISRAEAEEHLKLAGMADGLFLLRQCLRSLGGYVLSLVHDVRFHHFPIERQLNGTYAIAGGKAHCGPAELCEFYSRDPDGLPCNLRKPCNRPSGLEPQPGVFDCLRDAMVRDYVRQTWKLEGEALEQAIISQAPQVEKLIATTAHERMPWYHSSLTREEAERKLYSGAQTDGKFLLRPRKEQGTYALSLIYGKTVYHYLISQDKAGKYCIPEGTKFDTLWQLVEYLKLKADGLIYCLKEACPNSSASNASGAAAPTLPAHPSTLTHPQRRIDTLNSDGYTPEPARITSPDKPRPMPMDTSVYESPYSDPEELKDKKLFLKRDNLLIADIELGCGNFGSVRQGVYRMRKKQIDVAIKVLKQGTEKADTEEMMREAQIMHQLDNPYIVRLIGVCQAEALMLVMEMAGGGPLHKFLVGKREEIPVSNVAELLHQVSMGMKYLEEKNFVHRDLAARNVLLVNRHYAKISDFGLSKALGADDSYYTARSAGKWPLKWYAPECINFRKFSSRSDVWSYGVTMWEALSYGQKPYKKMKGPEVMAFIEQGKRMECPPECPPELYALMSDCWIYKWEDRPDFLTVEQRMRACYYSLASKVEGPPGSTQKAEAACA
Briefly: Kinase inhibition assay (33P transfer), Zap-70. The note with it: Table 3; for IC50: read-out: Zap-1. The method, boiled down: (§1)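 Steps: express kinase as GST or polyHistidine fusion in E. coli or High Five cells; optionally co-express or mix with regulatory polypeptides; incubate with 33P-ATP and plate-attached poly(Glu,Tyr) 4:1 or poly(Arg,Ser) 3:1; wash with 0.5% phosphoric acid; count by liquid scintillation.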

A further test concerns the target T2, Hck-1 (Homo sapiens, UniProt P08631).
T2 construct: Kinases are expressed as either kinase domains or full length constructs; made in house
Briefly: Kinase inhibition assay (33P transfer), Hck. The note with it: Table 6, Hck-1 kinase inhibition class.

A further test concerns the target T3, EGFR (Homo sapiens, UniProt P00533).
T3 construct: Kinases are expressed as either kinase domains or full length constructs; made in house
Briefly: Kinase inhibition assay (33P transfer), EGFR. As to conditions: Table 2, kinase inhibition class; for IC50: read-out: EGFR-1. The method in brief:
(§2)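 Read-out: scintillation counts of 33P moved from ATP onto synthetic peptide polymer coated on the well surface, after washing with 0.5% phosphoric acid. Enzymes were tagged (GST or polyHistidine) and came from bacterial or insect-cell expression. IC50 marks 50% loss of incorporated label.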

The next test deals with T4, Src (Homo sapiens, UniProt P12931).
T4 construct: Kinases are expressed as either kinase domains or full length constructs; made in house
T4 sequence (P12931 whole entry, species assumed, the tested form may be a part): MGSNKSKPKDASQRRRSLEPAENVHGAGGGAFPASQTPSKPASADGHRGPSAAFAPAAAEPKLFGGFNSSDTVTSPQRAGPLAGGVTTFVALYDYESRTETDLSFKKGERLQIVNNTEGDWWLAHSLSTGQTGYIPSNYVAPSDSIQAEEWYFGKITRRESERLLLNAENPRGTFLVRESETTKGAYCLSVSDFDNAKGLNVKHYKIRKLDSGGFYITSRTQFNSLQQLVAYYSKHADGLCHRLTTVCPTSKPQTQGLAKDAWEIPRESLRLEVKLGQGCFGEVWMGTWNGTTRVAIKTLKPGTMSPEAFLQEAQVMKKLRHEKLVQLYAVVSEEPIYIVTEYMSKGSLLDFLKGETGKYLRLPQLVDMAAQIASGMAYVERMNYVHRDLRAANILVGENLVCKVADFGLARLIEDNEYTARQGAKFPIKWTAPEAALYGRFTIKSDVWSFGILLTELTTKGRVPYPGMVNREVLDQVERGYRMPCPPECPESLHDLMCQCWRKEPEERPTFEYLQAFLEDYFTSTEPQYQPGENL
Briefly: Kinase inhibition assay (33P transfer), Src. As to conditions: Table 6, Src-1 kinase inhibition class. The method, boiled down: as §2

Another test deals with T5, Lyn (Homo sapiens, UniProt P07948).
T5 construct: Kinases are expressed as either kinase domains or full length constructs; made in house
T5 sequence (P07948 whole entry, species assumed, the tested form may be a part): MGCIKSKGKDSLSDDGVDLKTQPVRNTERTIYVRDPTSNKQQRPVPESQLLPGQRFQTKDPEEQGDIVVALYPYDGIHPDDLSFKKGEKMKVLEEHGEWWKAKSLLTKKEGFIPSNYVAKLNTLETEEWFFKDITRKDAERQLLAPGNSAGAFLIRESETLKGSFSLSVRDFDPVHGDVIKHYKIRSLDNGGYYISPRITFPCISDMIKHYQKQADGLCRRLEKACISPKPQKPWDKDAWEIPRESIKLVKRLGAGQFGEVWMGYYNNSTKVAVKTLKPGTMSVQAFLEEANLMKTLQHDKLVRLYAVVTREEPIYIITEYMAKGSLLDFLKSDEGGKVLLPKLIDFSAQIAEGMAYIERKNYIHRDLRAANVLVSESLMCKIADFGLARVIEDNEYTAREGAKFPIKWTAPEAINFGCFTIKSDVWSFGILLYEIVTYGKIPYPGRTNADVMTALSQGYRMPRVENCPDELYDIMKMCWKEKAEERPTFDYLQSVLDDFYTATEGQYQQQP
Briefly: Kinase inhibition assay (33P transfer), Lyn. The note with it: Table 6, Lyn-1 kinase inhibition class. The method, boiled down: as §2

The target in the next test is T6, Tek (Homo sapiens, UniProt Q02763).
T6 construct: Kinases are expressed as either kinase domains or full length constructs; made in house
T6 sequence (Q02763 23-1124, species assumed): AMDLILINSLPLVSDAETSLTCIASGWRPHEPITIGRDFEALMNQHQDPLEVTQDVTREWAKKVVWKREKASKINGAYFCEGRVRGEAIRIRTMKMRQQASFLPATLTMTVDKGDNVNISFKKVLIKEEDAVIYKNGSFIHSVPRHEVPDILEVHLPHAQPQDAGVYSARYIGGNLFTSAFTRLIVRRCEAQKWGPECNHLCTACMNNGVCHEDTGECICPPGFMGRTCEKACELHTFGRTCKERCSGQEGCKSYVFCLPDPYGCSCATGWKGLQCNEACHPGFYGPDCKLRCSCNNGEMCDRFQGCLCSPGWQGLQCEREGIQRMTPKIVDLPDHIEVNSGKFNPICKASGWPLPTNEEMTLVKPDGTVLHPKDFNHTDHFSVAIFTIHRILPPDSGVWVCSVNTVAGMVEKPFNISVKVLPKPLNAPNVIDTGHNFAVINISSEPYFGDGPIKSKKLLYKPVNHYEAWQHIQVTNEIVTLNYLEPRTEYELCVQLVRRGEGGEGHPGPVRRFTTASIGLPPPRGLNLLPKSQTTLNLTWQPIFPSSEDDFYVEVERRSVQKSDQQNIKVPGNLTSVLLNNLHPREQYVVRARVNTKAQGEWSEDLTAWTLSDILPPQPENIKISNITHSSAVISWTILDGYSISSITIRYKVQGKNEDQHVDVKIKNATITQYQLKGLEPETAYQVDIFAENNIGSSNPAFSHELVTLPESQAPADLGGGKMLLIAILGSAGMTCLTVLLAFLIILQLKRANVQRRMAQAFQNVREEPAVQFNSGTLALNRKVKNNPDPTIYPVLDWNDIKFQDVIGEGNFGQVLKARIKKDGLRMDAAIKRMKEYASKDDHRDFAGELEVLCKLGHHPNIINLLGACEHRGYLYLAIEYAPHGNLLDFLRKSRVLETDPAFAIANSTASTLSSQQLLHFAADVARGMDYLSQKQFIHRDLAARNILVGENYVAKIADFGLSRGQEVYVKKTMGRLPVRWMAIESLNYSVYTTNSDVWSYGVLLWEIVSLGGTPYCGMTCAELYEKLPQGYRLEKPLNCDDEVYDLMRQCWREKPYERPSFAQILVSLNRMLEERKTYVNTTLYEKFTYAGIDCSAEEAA
Briefly: Kinase inhibition assay (33P transfer), Tek. The note with it: read-out: Tek-1. The method, boiled down: as §2

The next test deals with T7, Ret-1 (Homo sapiens, UniProt P07949).
T7 construct: Kinases are expressed as either kinase domains or full length constructs; made in house
T7 sequence (P07949 29-1114): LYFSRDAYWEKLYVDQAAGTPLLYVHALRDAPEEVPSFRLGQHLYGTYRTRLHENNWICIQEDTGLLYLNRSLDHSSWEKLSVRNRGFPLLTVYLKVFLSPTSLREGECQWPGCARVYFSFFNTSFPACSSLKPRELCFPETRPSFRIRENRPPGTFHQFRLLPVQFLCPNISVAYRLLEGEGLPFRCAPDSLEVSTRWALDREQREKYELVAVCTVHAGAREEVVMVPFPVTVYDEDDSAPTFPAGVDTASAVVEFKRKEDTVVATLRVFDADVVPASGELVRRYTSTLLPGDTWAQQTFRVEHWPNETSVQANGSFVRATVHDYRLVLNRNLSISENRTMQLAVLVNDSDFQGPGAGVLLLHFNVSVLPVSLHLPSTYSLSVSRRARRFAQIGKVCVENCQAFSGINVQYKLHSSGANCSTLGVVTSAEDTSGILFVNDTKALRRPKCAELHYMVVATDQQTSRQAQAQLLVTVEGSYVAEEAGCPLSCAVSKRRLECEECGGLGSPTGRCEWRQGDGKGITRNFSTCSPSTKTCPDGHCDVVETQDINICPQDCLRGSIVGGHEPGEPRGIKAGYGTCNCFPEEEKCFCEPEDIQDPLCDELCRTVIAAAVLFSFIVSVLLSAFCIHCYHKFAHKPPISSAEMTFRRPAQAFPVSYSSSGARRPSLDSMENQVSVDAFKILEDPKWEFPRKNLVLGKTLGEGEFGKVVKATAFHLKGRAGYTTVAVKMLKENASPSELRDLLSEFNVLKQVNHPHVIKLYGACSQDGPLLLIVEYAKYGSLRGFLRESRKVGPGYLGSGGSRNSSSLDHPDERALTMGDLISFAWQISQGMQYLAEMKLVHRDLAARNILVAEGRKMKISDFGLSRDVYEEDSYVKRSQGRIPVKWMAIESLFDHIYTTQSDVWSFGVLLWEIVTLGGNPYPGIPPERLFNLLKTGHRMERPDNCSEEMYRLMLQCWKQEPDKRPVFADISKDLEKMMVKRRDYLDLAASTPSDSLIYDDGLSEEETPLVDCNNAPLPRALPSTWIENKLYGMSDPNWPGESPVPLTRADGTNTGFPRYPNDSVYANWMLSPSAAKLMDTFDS
Briefly: Kinase inhibition assay (33P transfer), Ret. As to conditions: Table 6, Ret-1 kinase inhibition class.

For another test, the target named is T8, Lck (Homo sapiens, UniProt P06239).
T8 construct: Kinases are expressed as either kinase domains or full length constructs; made in house
T8 sequence (P06239 whole entry, species assumed, the tested form may be a part): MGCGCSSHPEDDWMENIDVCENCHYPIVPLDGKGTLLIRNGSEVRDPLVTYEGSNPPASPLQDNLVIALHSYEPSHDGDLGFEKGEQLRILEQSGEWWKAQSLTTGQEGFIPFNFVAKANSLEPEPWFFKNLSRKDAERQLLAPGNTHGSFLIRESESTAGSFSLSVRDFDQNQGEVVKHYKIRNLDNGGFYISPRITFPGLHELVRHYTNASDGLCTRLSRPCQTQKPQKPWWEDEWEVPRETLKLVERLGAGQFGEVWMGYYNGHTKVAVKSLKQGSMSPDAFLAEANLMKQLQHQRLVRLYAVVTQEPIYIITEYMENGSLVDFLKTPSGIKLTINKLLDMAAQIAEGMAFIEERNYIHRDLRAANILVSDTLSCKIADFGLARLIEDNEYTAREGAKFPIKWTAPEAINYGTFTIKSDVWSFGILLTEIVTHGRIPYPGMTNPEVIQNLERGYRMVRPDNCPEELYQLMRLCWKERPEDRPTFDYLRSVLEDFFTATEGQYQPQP
Briefly: Kinase inhibition assay (33P transfer), Lck. As to conditions: Table 3; for IC50: read-out: Lck-1. The method in brief:
as §1

Another test addresses T9, EPHB4 (Homo sapiens, UniProt P54760).
T9 construct: Kinases are expressed as either kinase domains or full length constructs; made in house
T9 sequence (P54760 16-987): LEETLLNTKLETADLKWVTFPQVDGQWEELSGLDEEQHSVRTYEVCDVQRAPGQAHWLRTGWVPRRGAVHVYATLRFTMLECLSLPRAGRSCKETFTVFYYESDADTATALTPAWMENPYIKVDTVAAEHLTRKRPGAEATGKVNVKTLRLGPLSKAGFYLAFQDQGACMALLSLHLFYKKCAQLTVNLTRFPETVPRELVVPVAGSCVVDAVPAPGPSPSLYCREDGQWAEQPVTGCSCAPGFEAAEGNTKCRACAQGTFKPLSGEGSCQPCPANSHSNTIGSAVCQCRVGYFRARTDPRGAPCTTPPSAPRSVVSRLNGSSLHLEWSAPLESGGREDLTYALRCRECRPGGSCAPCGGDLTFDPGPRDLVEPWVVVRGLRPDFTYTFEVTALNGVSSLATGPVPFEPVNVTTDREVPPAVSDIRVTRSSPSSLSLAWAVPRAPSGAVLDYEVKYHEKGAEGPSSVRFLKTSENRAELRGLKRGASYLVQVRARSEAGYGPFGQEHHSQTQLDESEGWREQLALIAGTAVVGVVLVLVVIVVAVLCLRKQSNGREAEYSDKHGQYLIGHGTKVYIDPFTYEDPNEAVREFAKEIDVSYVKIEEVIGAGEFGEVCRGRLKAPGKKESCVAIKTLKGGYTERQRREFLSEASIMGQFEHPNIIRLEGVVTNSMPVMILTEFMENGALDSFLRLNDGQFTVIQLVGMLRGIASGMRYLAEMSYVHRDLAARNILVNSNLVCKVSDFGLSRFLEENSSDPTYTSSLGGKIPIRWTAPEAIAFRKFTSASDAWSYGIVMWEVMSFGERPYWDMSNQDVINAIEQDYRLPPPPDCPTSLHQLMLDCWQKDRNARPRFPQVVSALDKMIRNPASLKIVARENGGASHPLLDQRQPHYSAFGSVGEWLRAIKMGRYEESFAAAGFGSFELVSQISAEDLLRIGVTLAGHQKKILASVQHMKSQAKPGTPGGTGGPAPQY
Briefly: Kinase inhibition assay (33P transfer), EPHB4. As to conditions: for IC50: read-out: EPHB4-1.

T3 sequence (P00533 25-1210, species assumed): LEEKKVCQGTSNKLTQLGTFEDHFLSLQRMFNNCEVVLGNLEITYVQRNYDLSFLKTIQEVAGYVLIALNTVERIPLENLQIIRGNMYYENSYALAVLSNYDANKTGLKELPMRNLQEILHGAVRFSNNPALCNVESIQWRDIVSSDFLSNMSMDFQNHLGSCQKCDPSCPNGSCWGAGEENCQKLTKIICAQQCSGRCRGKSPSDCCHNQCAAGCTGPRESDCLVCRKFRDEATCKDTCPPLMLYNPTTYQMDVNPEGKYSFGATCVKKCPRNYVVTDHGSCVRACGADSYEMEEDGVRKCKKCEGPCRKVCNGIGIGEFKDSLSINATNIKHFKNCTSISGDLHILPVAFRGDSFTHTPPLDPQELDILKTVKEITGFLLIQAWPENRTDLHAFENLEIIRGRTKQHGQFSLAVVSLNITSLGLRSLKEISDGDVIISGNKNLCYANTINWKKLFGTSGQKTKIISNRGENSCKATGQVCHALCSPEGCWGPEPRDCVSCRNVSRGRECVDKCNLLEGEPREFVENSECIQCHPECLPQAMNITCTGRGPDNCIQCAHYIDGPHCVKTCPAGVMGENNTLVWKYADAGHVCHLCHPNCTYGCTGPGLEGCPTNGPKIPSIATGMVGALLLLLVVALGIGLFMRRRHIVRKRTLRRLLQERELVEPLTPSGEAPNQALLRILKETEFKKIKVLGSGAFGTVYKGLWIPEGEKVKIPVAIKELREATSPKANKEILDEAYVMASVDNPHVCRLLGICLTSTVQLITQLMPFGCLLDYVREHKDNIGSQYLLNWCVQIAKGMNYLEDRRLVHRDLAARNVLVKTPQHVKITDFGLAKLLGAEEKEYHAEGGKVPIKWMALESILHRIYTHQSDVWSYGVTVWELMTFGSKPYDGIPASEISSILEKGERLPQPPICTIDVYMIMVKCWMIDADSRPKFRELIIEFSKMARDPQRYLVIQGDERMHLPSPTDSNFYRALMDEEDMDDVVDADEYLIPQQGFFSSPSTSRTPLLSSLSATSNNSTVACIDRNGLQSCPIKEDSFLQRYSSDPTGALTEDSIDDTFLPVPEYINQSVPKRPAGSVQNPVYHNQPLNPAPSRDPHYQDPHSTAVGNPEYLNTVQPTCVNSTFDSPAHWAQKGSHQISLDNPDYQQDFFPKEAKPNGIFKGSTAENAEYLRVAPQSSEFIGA

Take `COc1cc(Nc2ncnc(N3CCc4ccccc43)n2)cc(OC)c1OC` [Compound 184]: the IC50 at Zap-70 was above 11.9 µM; against Hck-1, above 11.9 µM; at EGFR it was above 11.9 µM; on Src, 1.05 to 6.33 µM; at Lyn, 1.05 to 6.33 µM; at Tek, above 11.9 µM. The IC50 at Ret-1 is above 11.9 µM; at Lck, 1.05 to 6.33 µM; at EPHB4 it was 6.33 to 9.22 µM.

For the molecule `COc1ccc(Nc2ncnc(N(C/C=C/c3ccccc3)c3ccc(Cl)cc3)n2)cc1OC` [Compound 974], the IC50 on Zap-70 was above 9.49 µM; against Hck-1, above 9.49 µM; at EGFR, below 0.844 µM; on Src it was above 9.49 µM; against Lyn, 5.06 to 7.38 µM; on Tek, above 9.49 µM. The IC50 against Ret-1 was above 9.49 µM; on Lck, 5.06 to 7.38 µM; on EPHB4 it was above 9.49 µM.

For `Cc1cccc(Nc2ncnc(Nc3ccc4[nH]ccc4c3)n2)c1` [Compound 110], the IC50 is above 14.2 µM at Zap-70; 7.59 to 11.1 µM on Hck-1; below 1.26 µM on EGFR; below 1.26 µM at Src; below 1.26 µM on Lyn; above 14.2 µM at Tek. For the same molecule, the results for the IC50 against Ret-1, on Lck and on EPHB4 were 1.26 to 7.59 µM, 1.26 to 7.59 µM and 11.1 to 14.2 µM, respectively.

Turning to `c1coc(-c2cc(Nc3ncnc(Nc4ccc(N5CCOCC5)cc4)n3)[nH]n2)c1` [Compound 340], the IC50 at Zap-70 is above 11.1 µM; against Hck-1, above 11.1 µM; at EGFR, 5.93 to 8.65 µM; against Src, above 11.1 µM; against Lyn, 0.989 to 5.93 µM; at Tek it was 8.65 to 11.1 µM. The IC50 at Ret-1 is below 0.989 µM; on Lck, 0.989 to 5.93 µM; at EPHB4, 0.989 to 5.93 µM.

As for `CCOc1ccc(Nc2ncnc(Nc3ccc(OCc4ccccc4)cc3)n2)cc1OCC` [Compound 170], the IC50 at Zap-70 was 5.25 to 7.65 µM; against Hck-1 it was above 9.84 µM; at EGFR, 0.874 to 5.25 µM; against Src it was above 9.84 µM; against Lyn, above 9.84 µM; at Tek, 5.25 to 7.65 µM. Moreover, the IC50 is above 9.84 µM at Lck and 5.25 to 7.65 µM at EPHB4.

Consider `COc1cc(Nc2ncnc(Nc3nnc(-c4ccccc4)[nH]3)n2)cc(OC)c1OC` [Compound 311], for which the IC50 at Zap-70, on Hck-1, at EGFR, at Src, against Lyn and at Tek was above 10.7 µM throughout. The IC50 at Ret-1, at Lck and at EPHB4 was above 10.7 µM each time.

Regarding `COc1cc(Nc2ncnc(Nc3ccc(Br)c(Cl)c3)n2)cc(OC)c1OC` [Compound 936], the IC50 is above 9.64 µM at Zap-70; 5.14 to 7.5 µM on Hck-1; below 0.857 µM on EGFR; below 0.857 µM on Src; below 0.857 µM on Lyn; above 9.64 µM on Tek. The IC50 is 0.857 to 5.14 µM at Lck and below 0.857 µM on EPHB4.

`COc1cc(Nc2ncnc(Nc3cc(OC)c(OC)c(OC)c3)n2)cc(OC)n1` [Compound 253]: the IC50 was above 10.9 µM at Zap-70; above 10.9 µM at Hck-1; 5.79 to 8.45 µM at EGFR; below 0.965 µM at Src; above 10.9 µM on Lyn; 8.45 to 10.9 µM on Lck. For the same molecule, the IC50 on EPHB4 is above 10.9 µM.

For the molecule `COc1ccc(Nc2ncnc(Nc3cc(OC)c(OC)c(OC)c3)n2)cn1` [Compound 28], the Zap-1 result at Zap-70 was “E (E>4.5 ug/mL)”. In addition, the Hck-1 result on Hck-1 is “E (E>4.5 ug/mL)”. Further, the EGFR-1 result on EGFR was “B (B>0.4 and <2.4 ug/mL)”. In addition, the Src-1 result at Src was “B (B>0.4 and <2.4 ug/mL)”. Besides, the Lyn-1 entry at Lyn was “B (B>0.4 and <2.4 ug/mL)”. Besides, the Lck-1 result at Lck was “B (B>0.4 and <2.4 ug/mL)”. In addition, at EPHB4, the EPHB4-1 entry was “B (B>0.4 and <2.4 ug/mL)”.

Regarding `COc1ccc(Nc2ncnc(Nc3ccc(Oc4ccccc4)cc3)n2)cc1OC` [Compound 929], the IC50 on Zap-70 was 5.78 to 8.42 µM; at EGFR it was below 0.963 µM; at Tek, above 10.8 µM; at Ret-1 it was 5.78 to 8.42 µM; at Lck, 0.963 to 5.78 µM; at EPHB4, above 10.8 µM.

With `COc1cc(Nc2ncnc(N3CCCCC3)n2)cc(OC)c1OC` [Compound 207], the IC50 at Zap-70 is above 13 µM; on EGFR, above 13 µM; at Tek, above 13 µM; on Lck, 10.1 to 13 µM; on EPHB4 it was above 13 µM.

Regarding `Cc1cccc(Nc2ncnc(Nc3cccc(Br)c3)n2)c1` [Compound 109], the IC50 on Zap-70 was 6.74 to 9.83 µM; at EGFR it was below 1.12 µM; at Tek, above 12.6 µM; at Lck, above 12.6 µM; at EPHB4 it was above 12.6 µM.

For the molecule `COc1ccc(Nc2ncnc(Nc3ccc(N(C)C)cc3)n2)cc1OC` [Compound 114], the IC50 on Zap-70 is above 12.3 µM; at EGFR it was above 12.3 µM; on Tek, above 12.3 µM; against Ret-1, 1.09 to 6.55 µM; at Lck it was above 12.3 µM; at EPHB4, above 12.3 µM.

Regarding `COc1ccc(Nc2ncnc(Nc3cccc(C)c3)n2)cc1OC` [Compound 108], the IC50 is above 13.3 µM at Zap-70; above 13.3 µM at Hck-1; below 1.19 µM on EGFR; 1.19 to 7.11 µM on Src; below 1.19 µM at Lyn; above 13.3 µM on Tek. The IC50 was 10.4 to 13.3 µM on Lck and above 13.3 µM on EPHB4.

On to `C=CCN(c1ccc(Cl)cc1)c1ncnc(Nc2cc(OC)c(OC)c(OC)c2)n1` [Compound 972], for which the IC50 at Zap-70 was above 10.5 µM; on Hck-1, above 10.5 µM; at EGFR, below 0.935 µM; against Src, 0.935 to 5.61 µM; against Lyn, below 0.935 µM; on Tek it was 8.18 to 10.5 µM. Also, the IC50 at Lck and at EPHB4 was 0.935 to 5.61 µM each time.

As to `COc1ccc(N(C)c2ncnc(Nc3cc(OC)c(OC)c(OC)c3)n2)cc1` [Compound 106], the IC50 was above 11.3 µM on Zap-70; 1.01 to 6.04 µM at EGFR; above 11.3 µM on Tek; 1.01 to 6.04 µM on Ret-1; 6.04 to 8.81 µM on Lck; 1.01 to 6.04 µM at EPHB4.

Take `COc1cc(Nc2ncnc(Nc3ccc(C)c(N)c3)n2)cc(OC)c1OC` [Compound 935]: the IC50 on Zap-70 is above 11.8 µM; on Hck-1, 6.28 to 9.15 µM; at EGFR, below 1.05 µM; on Src it was below 1.05 µM; against Lyn, below 1.05 µM; on Tek, above 11.8 µM. Besides, the IC50 on Lck and at EPHB4 was 1.05 to 6.28 µM throughout.

(Values after patent US7074789B2, “Kinase inhibitors” (Amgen Inc., priority 1999, dated 2006).)
